# Source: patent US11058696B2, “Substituted bicyclic compounds” (BRISTOL-MYERS SQUIBB COMPANY, priority 2014, dated 2021)
# Key:
# [1] = target: S1P1 (membranes prepared from S1P1/CHO cells) (Homo sapiens (Human), UniProt P21453); test: Receptor [35S] GTPγS Binding Assay (S1P1 GTPγS); assay type: biochemical; details: GTPγS S1P1 versus GTPγS S1P3 binding assays
# Description: Receptor [^35S] GTPγS Binding Assays: (S1P1 GTPγS/S1P3 GTPγS)
# Compounds were loaded in a 384 Falcon v-bottom plate (0.5 μl/well in a 11 point, 3-fold dilution). Membranes prepared from S1P1/CHO cells or EDG3-Gal5-bla HEK293T cells (EDG3 equivalent S1P3) were added to the compound plate ([…], final protein 3 μg/well) with MULTIDROP®. [^35S]GTP (1250 Ci/mmol, Perkin Elmer) was diluted in assay buffer: 20 mM HEPES, pH7.5, 10 mM MgCl2, 150 mM NaCl, 1 mM EGTA (ethylene glycol tetraacetic acid), 1 mM DTT (Dithiothreitol), 10 μM GDP, 0.1% fatty acid free BSA, and 10 μg/ml Saponin to 0.4 nM. 40 μl of the [^35S] GTP solution was added to the compound plate with a final concentration of 0.2 nM. The reaction was kept at room temperature for 45 min. At the end of incubation, all the mixtures in the compound plate were transferred to Millipore 384-well FB filter plates via the VELOCITY11® Vprep liquid handler. The filter plate was washed with water 4 times by using the manifold Embla plate washer and dried at 60° C. for 45 min. MicroScint 20 scintillation fluid (30 μl) was added to each well for counting on the Packard TOPCOUNT®.
# A larger value for the GTPγS S1P3 EC50 value indicated less activity in the GTPγS S1P3 binding assay.
# [2] = test system: spontaneous lupus, anti-dsDNA antibodies and kidney histology; test: MRL/lpr Lupus Model; assay type: in vivo; details: MRL/lpr mice, p.o. daily
# Source text: MRL/lpr Lupus Model: MRL/lpr is a spontaneous model of lupus. Male MRL/lpr mice (Jackson Laboratory) at the age of 12-14 weeks were enrolled for the study (N=12). […] Mice were bled every other week for anti-dsDNA antibodies measured by ELISA using pooled serum from diseased MRL/lpr mice as a positive comparator in each assay. The data were expressed in arbitrary units as a ratio of the titer of the test serum to the titer of the pooled MRL/lpr immune serum. At the end of study, one kidney was collected into 10% neutral buffered formalin and ZincTris fixatives. Fixed tissues were processed into paraffin blocks, sectioned at 3 μm, and stained with H&E or PASH. Kidney sections were graded using following criteria: Glomerular Damage: 1. Mesangial matrix thickening, cell proliferation, 2. Crescent formation, cellular deposits/casts in Bowman's space, 3. Cellular infiltration, mononuclear cells in glomerular tufts, 4. Fibrosis of Bowman's capsule. Tubular damage: 1. Infiltration of mononuclear cells, 2. Severity of tubular damage, 3. Protein casts. Tubulo-interstitial damage: 1. Fibrosis, 2. Infiltration of mononuclear cells. Each subcategory was assigned a score from 0-4, with the scores for glomerular indices representing the mean from 20 glomeruli per kidney. The total score for each mouse was the sum of the above 9 subcategories, with the highest possible score=36.
# Chain of S1P1 (membranes prepared from S1P1/CHO cells) (P21453 whole entry): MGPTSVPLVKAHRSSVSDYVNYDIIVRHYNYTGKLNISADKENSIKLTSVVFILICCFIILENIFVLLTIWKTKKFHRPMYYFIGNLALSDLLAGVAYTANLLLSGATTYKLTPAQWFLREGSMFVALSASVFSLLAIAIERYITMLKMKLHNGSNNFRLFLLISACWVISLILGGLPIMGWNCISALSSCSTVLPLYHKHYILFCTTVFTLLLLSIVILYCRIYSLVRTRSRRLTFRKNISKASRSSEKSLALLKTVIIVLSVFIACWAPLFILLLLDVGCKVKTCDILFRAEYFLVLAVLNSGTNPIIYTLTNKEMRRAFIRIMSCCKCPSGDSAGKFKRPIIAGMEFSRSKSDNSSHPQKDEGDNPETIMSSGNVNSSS
SMILES,activity as an agonist of S1P1 and selectivity over S1P3 [1],inhibition of disease progression as measured by anti-dsDNA titers and kidney histology [2]
"COCCCCCC1CCc2cc([C@H]3CC[C@](N)(COP(=O)(O)O)C3)ccc2C1 (single isomer, unassigned) [Example 689]",possessed activity as an agonist of S1P1 and is selective over S1P3,
"COc1ccccc1CC[C@@H]1CCc2cc([C@H]3CC[C@](N)(CO)C3)ccc2C1 [Example 681, ((1R,3S)-1-amino-3-((S)-6-(2-methoxyphenethyl)-5,6,7,8-tetrahydronaphthalen-2-yl)cyclopentyl)methanol]",,showed inhibition of disease progression
